{"source": "patent US9140688B2", "about": "“Sperm staining and sorting methods” (INGURAN, LLC, priority 2011, dated 2015)", "key": {"[1]": {"system": "membrane compromised bovine sperm stained with Hoechst 33342", "experiment": "Dead quenching: dead gate intensity divided by live gate intensity, flow cytometry of stained bovine sperm", "format": "cell-based", "details": "for Dead Intensity (dead gate intensity divided by live gate intensity): Ex 5; for Intensity (dead gate): Hoechst 48 μM", "text": "FIG. 4 illustrates an example bivariate plot and univariate histogram of the parameters measured during sex selection by a FACS on a flow cytometer. […] Without a dead quenching dye, both populations of sperm would overlap to a large extent, with unpredictable variations in the dead sperm.\nThe entire ejaculate of sperm was suspended in first staining buffer, specifically a 7.4 pH TALP described in TABLE 1, to a concentration of 160×10^6 sperm per mL (determined on nucleocounter) and divided into three aliquots of about 20 mL into 50 mL Falcon tubes and pre-warmed for 10 minutes at 34° C. The DNA selective fluorescent dye, Hoechst 33342, was added and samples were held at 34° C. for 60 minutes. 3 different Hoechst 33342 Stain Levels were used=12 μL, 14 μL and 16 μL per 2 mL (effective concentrations of 48 μM, 56 μM, 64 μM).\nPreparation of the second buffer including the dead quenching dye—A 2 L bag of TALP, described in TABLE 1, was adjusted to pH 5.60 using HCl and then sterile filtered. […] For each of the four dyes tested (R40—red food dye No. 40, Y5—yellow food dye No. 5, Y6—yellow food dye No. 6 and PR—phenol red), an appropriate number of milligrams of each powder was placed in a Erlenmeyer Flask and then an exact amount of TALP pH 5.60 was added to create a […] concentration of the dye. The result was a working TALP stock for each dye with a 100% (125 μM) relative amount of dye 50% relative (62.5 μM) and 20% relative (25 μM) solutions were made by dilution of 100% by TALP pH 5.60.\nAfter this “bulk” staining for 60 minutes, 1 mL aliquots of stained sperm were combined with 1 mL aliquots of the second buffer including the dead quenching dyes. Samples sat for approximately 30 minutes at room temperature before being analyzed on a MoFlo SX (Beckman Coulter, USA) sperm sorting flow cytometer. Event rates were held as close to 13,000 as possible at the point of data acquisition.\nThe total number of individual treatments was 42 tubes, each containing 2 mL of stained sample. The alignment of the sorter was established using nuclei and confirmed with live sample from the 50% Red 40 series. Once good alignment was established, each tube was placed on the sorter long enough to establish a stabile dead gate population (about 30 seconds) and then a screenshot was taken and saved as a .jpeg image. This approach of rapidly documenting each sample is used to assure the most consistent alignment between all samples. Realignment of sorter will not cause differences in the intensities of live and dead gate populations but will cause differences in split quality.\nFIG. 4 illustrates an example histogram. The ratio of dead gate intensity divided by live gate intensity is created by dividing the distance “A” by the distance “B” shown as a percentage. Lower values mean higher levels of quenching. The ratio of peak height divided by valley height is created by dividing the distance “C” by the distance “D”. A value of 1.00 means “no split” while higher values mean “better splits”. […]"}, "[2]": {"details": "solvent water, cited from earlier work"}, "[3]": {"system": "X- and Y-chromosome bearing bovine sperm stained with Hoechst 33342", "experiment": "Split quality: height of peak divided by height of valley (PV), flow cytometry of stained bovine sperm", "format": "cell-based", "details": "for Height of Peak/Height of Valley: Ex 5; for Height of Peak Divided by Height of Valley: Ex 7, Phenol Red 620 μM with Yellow 6 62 μM"}, "[4]": {"details": "dye 62.5 μM, Hoechst 12 μL/2 mL"}, "[5]": {"details": "dye 62.5 μM, Hoechst 14 μL/2 mL"}, "[6]": {"details": "dye 62.5 μM, Hoechst 16 μL/2 mL"}}, "note": "Where two headings read alike, the source gives them in different places.", "data": [{"smiles": "O=S1(=O)OC(c2ccc(O)cc2)(c2ccc(O)cc2)c2ccccc21", "note": "[Phenol Red, phenolsulfonphthalein]", "values": [{"measurement": "Dead Intensity (dead gate intensity divided by live gate intensity)", "setting": "[1]; dye 25 μM, Average of Hoechst levels", "result": 94, "unit": "%"}, {"measurement": "Dead Intensity (dead gate intensity divided by live gate intensity)", "setting": "[1]; dye 25 μM, Hoechst 12 μL/2 mL", "result": 94, "unit": "%"}, {"measurement": "Dead Intensity (dead gate intensity divided by live gate intensity)", "setting": "[1]; dye 25 μM, Hoechst 14 μL/2 mL", "result": 97, "unit": "%"}, {"measurement": "Dead Intensity (dead gate intensity divided by live gate intensity)", "setting": "[1]; dye 25 μM, Hoechst 16 μL/2 mL", "result": 90, "unit": "%"}, {"measurement": "Dead Intensity (dead gate intensity divided by live gate intensity)", "setting": "[1]; dye 62.5 μM, Average of Hoechst levels", "result": 87, "unit": "%"}, {"measurement": "Dead Intensity (dead gate intensity divided by live gate intensity)", "setting": "[1]; [4]", "result": 90, "unit": "%"}, {"measurement": "Dead Intensity (dead gate intensity divided by live gate intensity)", "setting": "[1]; [5]", "result": 90, "unit": "%"}, {"measurement": "Dead Intensity (dead gate intensity divided by live gate intensity)", "setting": "[1]; [6]", "result": 80, "unit": "%"}, {"measurement": "Dead Intensity (dead gate intensity divided by live gate intensity)", "setting": "[1]; dye 125 μM, Average of Hoechst levels", "result": 79, "unit": "%"}, {"measurement": "Dead Intensity (dead gate intensity divided by live gate intensity)", "setting": "[1]; dye 125 μM, Hoechst 12 μL/2 mL", "result": 80, "unit": "%"}, {"measurement": "Dead Intensity (dead gate intensity divided by live gate intensity)", "setting": "[1]; dye 125 μM, Hoechst 14 μL/2 mL", "result": 80, "unit": "%"}, {"measurement": "Dead Intensity (dead gate intensity divided by live gate intensity)", "setting": "[1]; dye 125 μM, Hoechst 16 μL/2 mL", "result": 78, "unit": "%"}, {"measurement": "amount of dye needed for a similar dead gate intensity ratio as red food dye No. 40 and yellow food dye No. 6", "setting": "[1]; Ex 6", "result": "twelve times more"}, {"measurement": "Intensity (dead gate)", "setting": "[1]; Ex 6, dye 125 μM, pH 7.40", "result": 85, "unit": "%"}, {"measurement": "Intensity (dead gate)", "setting": "[1]; Ex 6, dye 125 μM, resulting pH 6.70", "result": 79, "unit": "%"}, {"measurement": "Intensity (dead gate)", "setting": "[1]; Ex 6, dye 250 μM, pH 7.40", "result": 76, "unit": "%"}, {"measurement": "Intensity (dead gate)", "setting": "[1]; Ex 6, dye 250 μM, resulting pH 6.70", "result": 70, "unit": "%"}, {"measurement": "Intensity (dead gate)", "setting": "[1]; Ex 6, dye 500 μM, pH 7.40", "result": 66, "unit": "%"}, {"measurement": "Intensity (dead gate)", "setting": "[1]; Ex 6, dye 500 μM, resulting pH 6.70", "result": 67, "unit": "%"}, {"measurement": "Intensity (dead gate)", "setting": "[1]; Ex 6, dye 750 μM, pH 7.40", "result": 56, "unit": "%"}, {"measurement": "Intensity (dead gate)", "setting": "[1]; Ex 6, dye 750 μM, resulting pH 6.70", "result": 55, "unit": "%"}, {"measurement": "Intensity (dead gate)", "setting": "[1]; Ex 6, dye 875 μM, pH 7.40", "result": 47, "unit": "%"}, {"measurement": "Intensity (dead gate)", "setting": "[1]; Ex 6, dye 875 μM, resulting pH 6.70", "result": 45, "unit": "%"}, {"measurement": "Intensity (dead gate)", "setting": "[1]; Ex 6, dye 1250 μM, pH 7.40", "result": 43, "unit": "%"}, {"measurement": "Intensity (dead gate)", "setting": "[1]; Ex 6, dye 1250 μM, second buffer pH 5.60 (resulting pH 6.70)", "result": 41, "unit": "%"}, {"measurement": "Expected Absorption Maxima", "setting": "[2]; longer-wavelength local maximum", "result": 560, "unit": "nm"}, {"measurement": "Expected Absorption Maxima", "setting": "[2]; shorter-wavelength local maximum", "result": 440, "unit": "nm"}, {"measurement": "Height of Peak/Height of Valley", "setting": "[3]; dye 25 μM, Average of 12 and 14 μL series", "result": 1.74}, {"measurement": "Height of Peak/Height of Valley", "setting": "[3]; dye 25 μM, Hoechst 12 μL/2 mL", "result": 1.82}, {"measurement": "Height of Peak/Height of Valley", "setting": "[3]; dye 25 μM, Hoechst 14 μL/2 mL", "result": 1.65}, {"measurement": "Height of Peak/Height of Valley", "setting": "[3]; dye 25 μM, Hoechst 16 μL/2 mL", "result": 1.00}, {"measurement": "Height of Peak/Height of Valley", "setting": "[3]; dye 62.5 μM, Average of 12 and 14 μL series", "result": 1.75}, {"measurement": "Height of Peak/Height of Valley", "setting": "[3]; [4]", "result": 1.62}, {"measurement": "Height of Peak/Height of Valley", "setting": "[3]; [5]", "result": 1.87}, {"measurement": "Height of Peak/Height of Valley", "setting": "[3]; [6]", "result": 1.00}, {"measurement": "Height of Peak/Height of Valley", "setting": "[3]; dye 125 μM, Average of 12 and 14 μL series", "result": 1.62}, {"measurement": "Height of Peak/Height of Valley", "setting": "[3]; dye 125 μM, Hoechst 12 μL/2 mL", "result": 1.49}, {"measurement": "Height of Peak/Height of Valley", "setting": "[3]; dye 125 μM, Hoechst 14 μL/2 mL", "result": 1.75}, {"measurement": "Height of Peak/Height of Valley", "setting": "[3]; dye 125 μM, Hoechst 16 μL/2 mL", "result": 1.00}, {"measurement": "PV", "setting": "[3]; Ex 6, dye 125 μM, pH 7.40, Hoechst 48 μM", "result": 1.27}, {"measurement": "PV", "setting": "[3]; Ex 6, dye 125 μM, resulting pH 6.70, Hoechst 48 μM", "result": 1.00}, {"measurement": "PV", "setting": "[3]; Ex 6, dye 250 μM, pH 7.40, Hoechst 48 μM", "result": 1.22}, {"measurement": "PV", "setting": "[3]; Ex 6, dye 250 μM, resulting pH 6.70, Hoechst 48 μM", "result": 1.17}, {"measurement": "PV", "setting": "[3]; Ex 6, dye 500 μM, pH 7.40, Hoechst 48 μM", "result": 1.51}, {"measurement": "PV", "setting": "[3]; Ex 6, dye 500 μM, resulting pH 6.70, Hoechst 48 μM", "result": 1.25}, {"measurement": "PV", "setting": "[3]; Ex 6, dye 750 μM, pH 7.40, Hoechst 48 μM", "result": 1.46}, {"measurement": "PV", "setting": "[3]; Ex 6, dye 750 μM, resulting pH 6.70, Hoechst 48 μM", "result": 1.25}, {"measurement": "PV", "setting": "[3]; Ex 6, dye 875 μM, pH 7.40, Hoechst 48 μM", "result": 1.44}, {"measurement": "PV", "setting": "[3]; Ex 6, dye 875 μM, resulting pH 6.70, Hoechst 48 μM", "result": 1.20}, {"measurement": "PV", "setting": "[3]; Ex 6, dye 1250 μM, pH 7.40, Hoechst 48 μM", "result": 1.30}, {"measurement": "PV", "setting": "[3]; Ex 6, dye 1250 μM, resulting pH 6.70, Hoechst 48 μM (understained)", "result": 1.29}, {"measurement": "Height of Peak Divided by Height of Valley", "setting": "[3]; cells 100 million per mL", "result": 1.49}, {"measurement": "Height of Peak Divided by Height of Valley", "setting": "[3]; cells 150 million per mL", "result": 1.34}, {"measurement": "Height of Peak Divided by Height of Valley", "setting": "[3]; cells 250 million per mL", "result": 1.43}, {"measurement": "Height of Peak Divided by Height of Valley", "setting": "[3]; cells 300 million per mL", "result": 1.36}, {"measurement": "PV", "setting": "[3]; Ex 8, Bull 1, Hoechst 44 μM, PR 250 μM with Y6 50 μM", "result": 1.52}, {"measurement": "PV", "setting": "[3]; Ex 8, Bull 1, Hoechst 44 μM, PR 500 μM alone", "result": 1.97}, {"measurement": "PV", "setting": "[3]; Ex 8, Bull 1, Hoechst 60 μM, PR 375 μM alone", "result": 2.38}, {"measurement": "PV", "setting": "[3]; Ex 8, Bull 1, Hoechst 60 μM, PR 375 μM with Y6 50 μM", "result": 2.38}, {"measurement": "PV", "setting": "[3]; Ex 8, Bull 1, Hoechst 60 μM, PR 1200 μM with R40 20 μM", "result": 2.12}, {"measurement": "PV", "setting": "[3]; Ex 8, Bull 2, Hoechst 28 μM, PR 375 μM alone", "result": 1.96}, {"measurement": "PV", "setting": "[3]; Ex 8, Bull 2, Hoechst 28 μM, PR 375 μM with Y6 50 μM", "result": 2.05}, {"measurement": "PV", "setting": "[3]; Ex 8, Bull 2, Hoechst 44 μM, PR 225 μM with Y6 50 μM", "result": 1.56}, {"measurement": "PV", "setting": "[3]; Ex 8, Bull 2, Hoechst 44 μM, PR 375 μM with R40 20 μM", "result": 1.64}, {"measurement": "PV", "setting": "[3]; Ex 8, Bull 2, Hoechst 44 μM, PR 375 μM with Y6 50 μM", "result": 1.75}, {"measurement": "PV", "setting": "[3]; Ex 8, Bull 2, Hoechst 60 μM, PR 375 μM with Y6 50 μM", "result": 1.69}, {"measurement": "PV", "setting": "[3]; Ex 8, Bull 2, Hoechst 60 μM, PR 375 μM with Y6 375 μM", "result": 2.31}, {"measurement": "effect of addition on split quality, in words", "setting": "[3]; Ex 8, each Hoechst level, with Red 40 or Yellow 6", "result": "always improved split quality"}, {"measurement": "split enhancing effect compared to control, in words", "setting": "[3]; Ex 10, 15, 45, 125 μM, averaged over 8 bulls", "result": "consistent split improvements at all concentrations after 30 minutes"}]}]}
